Test results as given in patent publication US5837728A, “9-cis retinoic acid esters and amides and uses thereof” (priority 1995, dated 1998).
“Also recorded” adds a separate entry of the source. Like-named read-outs stand apart in the source and are kept apart here.

Legend:
[1] = tested on: ornithine decarboxylase (ODC); experiment: ODC/Retinoid Bioassay: inhibition of TPA induced ornithine decarboxylase activity; format: in vivo, CD-1 mice; conditions: topical, TPA induced
Procedure: The ODC/Retinoid Bioassay is based on the method of Verma, A. K. and Boutwell, R. K., Cancer Res. (1977) 37:2196-2201. The ODC assay measures a compounds effect on the prevention of the induction of ODC, namely the effect of the retinoid compound on the inhibition of the tumor promoter 12-O-tetradecanoylphorbol-13-acetate (TPA) induced ODC activity. The assay is carried out using CD-1 mice (aged 7 to 9 weeks). The dorsal hair of the mice is shaved 3-4 days before testing. Four mice are used for each point. The test retinoids, at one of two dose levels (1.7 and 17 nmoles) dissolved in 0.2 ml of acetone is applied topically to the back of each shaved mouse. A single dose of TPA ([…]) is applied to the back of each treated mouse 30 minutes later. Control groups are treated with either acetone alone, TPA, or tretinoin. The mice are sacrificed by cervical dislocation 5 hours after TPA treatment.
The dorsal skin encompassing the shaved and TPA exposed area is excised and placed in a 100 ml beaker containing distilled water maintained at 51° C.-57° C. The skin is soaked for 50-70 seconds at this temperature with intermittent stirring. The skin is placed epidermis side up in a chilled (0°-5° C.) stainless steel plate and the epidermal layer is scraped off with a razor blade. The epidermal layers from the 4 mice are pooled and placed in a homogenization tube with 2 ml of ODA buffer ([…] with […] pyridoxal phosphate, […] ethylenediaminetetraacetic acid (EDTA), 1 mM dithiothreitol, pH 7.5). The pooled epidermal layers are homogenized for 15 seconds at 0° C. using a Polytron homogenizer at a setting of 7.5. The homogenate is centrifuged at 30,000×g and the supernatant fraction is pipetted into a storage tube and frozen for about 72 hours.
The homogenate is assayed for ODC activity as described by Verma and Boutwell to measure the release of ^14 CO2 from labeled DL(1-14C) ornithine. Incubations are carried out in disposable centrifuge tubes with center well holders containing filter paper impregnated with sodium hydroxide to absorb ^14 CO2. The incubation mixture consisted of 90 μl of L-ornithine, 350 μl of ODC buffer, 100 μl of 14C-ornithine (1.32 nm, Sp. Act:4.4 pCi/pM) and 10 μl of test sample. After incubation at 37° C. for 45 minutes, 0.5 ml of 2M chilled citric acid (4° C.) is added and incubation is continue for an additional 30 minutes to insure complete absorption of ^14 CO2. The filter paper is removed from the center well holders and set in 1 ml of water in capped scintillation vials for at least 1 hour before adding RBI 3820 scintillation cocktail. Radioactivity is measured in a Tri Carb Scintillation Counter. Results are expressed as pmol of ^14 CO2 released in 30 minutes per milligram of protein based on the specific activity of DL-14C-ornithine. The results are expressed in Table 2 below as the % reduction in ODC activity as compared to the control, for the compounds of each of the preceding Examples: […]

[2] = tested on: sebaceous gland; experiment: Oral hamster sebaceous gland reduction assay; format: in vivo, male Syrian golden hamsters; set-up: key to the marks not given beside the values; conditions: 32 mg/kg
Procedure: An oral assay for hamster sebaceous gland reduction is conducted.
Hamsters are dosed orally with the test compound and vehicle alone. The reduction in sebaceous gland size is estimated microscopically in relation to the control. The assay is unique and proprietary to Ortho Pharmaceutical Corp. and is based upon the work of Plewig et al. (1977) and Gomex et al. (1980). Plewig, et al., Hamster Ear Model for Sebaceous Glands, J. Invest. Derm. 68: 171-176 (1977). Gomez, et al., Effect of 13-cis-Retinoic Acid on the Hamster Flank Organ, J. Invest. Derm. 74: 392-397 (1980).
For oral (p.o.) studies, male Syrian golden hamsters are […] at 5 ml/kg, once daily, five consecutive days/week for two or three weeks. Modified but similar dosing schedules could be used. Control hamsters are dosed with vehicle alone at 5 ml/kg. Following final treatment (up to 72 hours), the hamsters are sacrificed in a CO2 atmosphere. Samples of each test site are placed into 10% buffered formalin and histologically prepared. Serial sections of each sample are stained (H&E) and examined microscopically.
The reduction in sebaceous gland size is estimated microscopically in relation to the control treated sites. To quantify sebaceous gland size, cross-sectional areas are measured with an image analyzer system.

[3] = tested on: skin of rabbits; experiment: Topical assay for primary acute dermal irritation; format: in vivo
Procedure: Twelve healthy, young, adult, female New Zealand White rabbits (Orycetolagus cuniculus), are used in the study. […] At the start of the study, the animals are in the weight range between 2.0 and 3.0 kilograms, and are approximately 11 weeks of age. Animals selected for the test are not subjected to any previous experimental procedures, and their skin is free from irritation, trauma and disease.
Six animals are treated in this manner.
The application sites are prepared by clipping the skin of the trunk free of hair approximately 24 hours before application of the dose. One application site on each animal is abraded by making minor incisions through the stratum corneum, but not sufficient to disturb the derma (that is, not sufficiently deep to produce bleeding). The second application site is intact skin.
The dose is applied to a small area (approximately 6 cm^2) of skin and covered with a gauze patch which is held in place with Vetrap bandaging. The patches are applied to one intact site and one abraded site per animal. The test substance is kept in contact with the skin for 24 hours. The skin is not rinsed following the 24 hour exposure period.
Animals are observed for signs of erythma and edema 24 and 72 hours after application of the test material. Observations are scored according to the Draize Scale for Scoring Skin Reactions as in Draize, J. H., Dermal Toxicity, Appraisal of the Safety of Chemicals in Foods, Drugs and Cosmetics Dermal Toxicity, pp. 46-59, Association of Food and Drug Officials of the U.S., Topeka, Kans., 1965. […] Animals are weighed at the beginning and at the end of the observation period.

[4] = tested on: Human neonatal foreskin keratinocytes; experiment: Growth of human neonatal foreskin keratinocytes (cell number); format: cell-based; conditions: three days
Excerpt: Human neonatal foreskin keratinocytes and human neonatal foreskin fibroblasts were isolated and grown in monlayer culture. Culture medium for keratinocytes was Keratincyte Growth Medium (KGM) from Clonetics, Inc., San Diego. Calif. The culture medium for fibroblasts was Dulbecco's Modified Eagle's Medium (DMEM) supplemented with non-essential amino acids and 10% fetal bovine serum. The culture medium was obtained from GIBCO, Grand Island, N.Y. and the FBS was from Hyclone Labs, Inc., Logan, Utah.
Cells at passage 2-4 were plated in wells of a 24 well dish at approximately 5×10^4 cells per well in their respective culture medium. Incubation was at 37° C. with 5% CO2. After the cells attached and spread overnight, they were washed two times in serum-free keratincyte basal medium (KBM) and incubated in 1 ml of KBM or in 1 ml of KGM. Compound IV was added in varying concentrations to the wells. […] The cells were incubated for an additional two days for fibroblasts and three days for keratinocytes, and were then harvested and counted.

[5] = tested on: skin wound of rats; conditions: 1% for 3 days before and 0.1% after the wound; cited from earlier work
[6] = tested on: corneal epithelial wounds; conditions: cited from earlier work
[7] = tested on: photoaged skin; conditions: cited from earlier work
[8] = tested on: ultraviolet damaged skin of hairless mice; conditions: topical tretinoin, several weeks; cited from earlier work
[9] = tested on: epidermal growth factor cell surface receptors; conditions: in vitro; cited from earlier work
[10] = 17.0 nM (as printed in Table 2)
[11] = 0.1% retinoic acid hydrophilic cream, 16 weeks

Question: Which ODC activity reduction ([1]; 1.7 nM (as printed in Table 2)) does the source give for `COc1ccc(C(=O)COC(=O)/C=C(C)/C=C/C=C(C)\C=C\C2=C(C)CCCC2(C)C)cc1` [Compound 2, 2-(9-cis-retinoyloxy)-4'-methoxyacetophenone] here?
Answer: ++

Question: And the ODC activity reduction [1, 10]?
Answer: +++

Question: What about the Sebaceous gland reduction [2] of the same compound?
Answer: +++

Question: And the “Signs of erythema or edema formation (Draize scale)” value ([3]; 0.5 ml topical, intact and abraded skin, 24 and 72 hours)?
Answer: no signs of erythema or edema formation are evident in any of the 12 test animals

Question: And the Body weight change ([3]; beginning vs end of observation period, all 12 animals)?
Answer: All 12 animals exhibited a gain in body weight

Question: What about the “Overt signs of toxicity” value ([3]; rabbit, in vivo) of the same compound?
Answer: No overt signs of toxicity are evident

Question: What does the source list for `CC1=C(/C=C/C(C)=C/C=C/C(C)=C/C(=O)O)C(C)(C)CCC1` [all-trans-retinoic acid, reference compound]?
Answer: ODC activity reduction [1, 10]: +++; Sebaceous gland reduction [2]: +++; Number of keratinocytes, KGM ([4]; 0.25 μg/ml): 24.7 ± 1.7 × 10^4 cells; Number of keratinocytes, KMB ([4]; 0.25 μg/ml): 13.7 ± 1.6 × 10^4 cells; Number of keratinocytes, KGM ([4]; 0.5 μg/ml): 17.7 ± 0.8 × 10^4 cells; Number of keratinocytes, KMB ([4]; 0.5 μg/ml): 15.2 ± 0.1 × 10^4 cells; Number of keratinocytes, KMB ([4]; 1.0 μg/ml): 12.3 ± 1.0 × 10^4 cells; Acceleration of healing compared to control group [5]: 18%; Increase in the healing rate ([6]; 0.1% tretinoin three times per day): 21%; Increase in the healing rate ([6]; five times a day): 35%; Effect on sun damaged skin (Weiss study) [7, 11]: some positive effects on the surface texture and wrinkling of sun damaged facial skin, and on the histology of the epidermal and stratum corneum layers of dorsal forearm skin; Irritancy (Weiss study) [7, 11]: moderately severe irritancy level; Patients who experienced dermatitis ([7]; Weiss et al.): 92%; Improvement of photoaging of the skin ([7]; cream containing 0.1% tretinoin, daily topical): could be improved within a 16-week period; Redness, peeling, stinging, burning and dryness ([7]; topical tretinoin therapy): consistently experienced by nearly all subjects; Subjects with dermatitis severe enough to require topical steroids ([7]; topical tretinoin therapy): Eleven of fifteen subjects; Subjects withdrawn due to severity of dermatitis ([7]; topical tretinoin therapy): Three of fifteen; Repair of ultraviolet damaged skin [8]: subepidermal repair zone in the treated mice was significantly wider than that in the untreated control group; also recorded: augmented the repair of ultraviolet damaged tissue in the hairless mouse with new blood vessel formation; Effect on epidermal growth factor activity and receptor binding [9]: increases the mitogenic activity of epidermal growth factor and its binding to its cell surface receptors in vitro
